In ChEMBL document CHEMBL3879893, “Nuclear transport modulators and uses thereof” (2011):
The source made the active and inactive calls. The rule behind the calls is not given here.

Target: T1, Exportin-1 (Homo sapiens, UniProt O14980)
Assay: Inhibition of Crm1 in human H929 cells assessed as decrease in nuclear export of topoisomerase-2 by measuring caspase-3 levels at 0.1 to 10 uM preincubated for 16 hrs followed by addition of topoisomerase-2 inhibitor doxorubicin measured after 4 hrs by anti-caspase-3 assay
Format: cell-based
Details: not given

T1 sequence (O14980 whole entry): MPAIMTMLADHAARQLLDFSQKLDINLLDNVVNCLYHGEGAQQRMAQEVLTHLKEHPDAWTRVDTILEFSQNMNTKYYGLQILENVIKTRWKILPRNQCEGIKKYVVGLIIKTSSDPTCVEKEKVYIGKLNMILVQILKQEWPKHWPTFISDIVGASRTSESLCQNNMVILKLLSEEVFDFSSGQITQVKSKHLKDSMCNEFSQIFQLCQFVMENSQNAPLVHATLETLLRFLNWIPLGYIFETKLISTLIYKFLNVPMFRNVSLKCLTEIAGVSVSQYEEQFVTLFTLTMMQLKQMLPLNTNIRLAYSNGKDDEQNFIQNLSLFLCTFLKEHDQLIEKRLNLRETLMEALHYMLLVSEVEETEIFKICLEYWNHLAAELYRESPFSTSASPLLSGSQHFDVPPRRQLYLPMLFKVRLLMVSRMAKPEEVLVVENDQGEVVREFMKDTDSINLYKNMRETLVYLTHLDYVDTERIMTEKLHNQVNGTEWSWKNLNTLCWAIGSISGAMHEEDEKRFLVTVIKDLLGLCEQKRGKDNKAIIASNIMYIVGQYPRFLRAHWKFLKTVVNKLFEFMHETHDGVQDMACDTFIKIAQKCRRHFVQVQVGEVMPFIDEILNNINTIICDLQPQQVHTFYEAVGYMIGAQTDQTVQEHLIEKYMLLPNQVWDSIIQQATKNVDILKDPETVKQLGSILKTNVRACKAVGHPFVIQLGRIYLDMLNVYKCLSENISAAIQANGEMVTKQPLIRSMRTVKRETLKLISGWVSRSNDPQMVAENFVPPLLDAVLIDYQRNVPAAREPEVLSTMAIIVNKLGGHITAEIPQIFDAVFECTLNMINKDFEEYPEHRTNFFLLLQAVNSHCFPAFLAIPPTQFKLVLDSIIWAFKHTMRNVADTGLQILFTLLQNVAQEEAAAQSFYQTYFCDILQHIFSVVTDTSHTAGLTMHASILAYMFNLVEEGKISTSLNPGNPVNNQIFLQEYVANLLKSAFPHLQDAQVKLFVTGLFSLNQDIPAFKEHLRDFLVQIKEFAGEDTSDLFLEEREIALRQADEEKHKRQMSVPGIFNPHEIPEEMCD

Row | SMILES | inhibition
1 | CC(C)OC(=O)/C=C\n1cnc(-c2cccc(Cl)c2)n1 | Active

Target: T1, Exportin-1
Assay: Inhibition of Crm1 in human U2OS cells expressing GFP-fused HIV1 Rev assessed as decrease in nuclear export of GFP-fused HIV1 Rev after 1 hr by Hoechst 33258 staining-based assay
Format: cell-based
Details: not given

Row | SMILES | IC50
2 | CC(C)OC(=O)/C=C\n1cnc(-c2cc(Cl)cc(OC(C)C)c2)n1 | ≤ 1000 nM
3 | CC(C)OC(=O)/C=C\n1cnc(-c2cc(OCCN3CCCC3)cc(C(F)(F)F)c2)n1 | ≤ 1000 nM
4 | CC(C)OC(=O)/C=C/Cn1cnc(-c2cccc(Cl)c2)n1 | 1000 to 10000 nM
5 | O=C(/C=C\n1cnc(-c2cc(Cl)nc(Cl)c2)n1)OC1CNC1 | ≤ 1000 nM
6 | O=C(/C=C\n1cnc(-c2cccc(Cl)c2)n1)OC1COC(=O)C1 (stereo unspecified) | 1000 to 10000 nM
7 | O=C(/C=C\n1cnc(-c2cccc(Cl)c2)n1)OCc1ccccn1 | ≤ 1000 nM
8 | CC(C)OC(=O)/C=C\n1cnc(-c2cc(OC(C)C)cc(C(F)(F)F)c2)n1 | ≤ 1000 nM
9 | COc1cc(-c2ncn(/C=C\C(=O)OC(C)C)n2)cc(Cl)n1 | ≤ 1000 nM
10 | COc1cc(-c2ncn(/C=C\C(=O)OC(C)C)n2)cc(C(F)(F)F)c1 | ≤ 1000 nM
11 | CC(C)OC(=O)/C=C\n1cnc(-c2cncc(Cl)c2)n1 | ≤ 1000 nM
12 | CCOC(=O)/C=C\n1cnc(-c2cccc(Cl)c2)n1 | ≤ 1000 nM
13 | CC(C)OC(=O)/C=C\n1cnc(-c2csc(Cl)c2)n1 | ≤ 1000 nM
14 | CC(C)OC(=O)/C=C\n1cnc(-c2ccc(Cl)c(Cl)c2)n1 | ≤ 1000 nM
15 | CCOC(=O)/C=C\n1cnc(-c2cc(F)cc(F)c2)n1 | 1000 to 10000 nM
16 | CC(C)Oc1cc(-c2ncn(/C=C\C(=O)OCc3ccccn3)n2)cc(C(F)(F)F)c1 | ≤ 1000 nM
17 | CC(C)OC(=O)/C=C\c1n[nH]c(-c2cc(Cl)cc(Cl)c2)n1 | 1000 to 10000 nM
18 | CC(C)OC(=O)/C=C\c1n[nH]c(-c2cccc(Cl)c2)n1 | ≤ 1000 nM
19 | COCCOc1cc(Cl)cc(-c2ncn(/C=C\C(=O)OC(C)C)n2)c1 | ≤ 1000 nM
20 | COC(=O)/C=C\n1cnc(-c2cc(Cl)cc(OC)c2)n1 | ≤ 1000 nM
21 | FC(F)(F)/C=C\n1cnc(-c2cccc(Cl)c2)n1 | 1000 to 10000 nM
22 | O=C(/C=C\n1cnc(-c2cccc(Cl)c2)n1)OCC1CCCN1 (stereo unspecified) | 1000 to 10000 nM
23 | CC(C)Oc1cc(-c2ncn(/C=C\C#N)n2)cc(C(F)(F)F)c1 | ≤ 1000 nM
24 | COc1ccc(-c2ncn(/C=C\C(=O)OC(C)C)n2)cc1Cl | 1000 to 10000 nM
25 | O=C(/C=C\n1cnc(-c2cccc(Cl)c2)n1)OC1CCCCC1 | ≤ 1000 nM
26 | CN(C(=O)/C=C\c1nnc(-c2cccc(Cl)c2)[nH]1)c1ccccc1 | ≥ 10000 nM
27 | COc1ccc(Cl)cc1-c1ncn(/C=C\C(=O)OC(C)C)n1 | ≤ 1000 nM
28 | CC(C)OC(=O)/C=C\n1cnc(-c2csc(Cl)n2)n1 | 1000 to 10000 nM

Row | SMILES | IC50
29 | CC(C)OC(=O)/C=C\n1cnc(-c2cccc(Cl)c2)n1 | ≤ 1000 nM
30 | COc1cc(Cl)cc(-c2ncn(/C=C\C(=O)OC(C)C)n2)c1 | ≤ 1000 nM
31 | O=C(/C=C\n1cnc(-c2cccc(Cl)c2)n1)OCc1cnc[nH]1 | 1000 to 10000 nM
32 | CC(C)OC(=O)/C=C\n1cnc(-c2ccc(Oc3ccc(Cl)cc3)cc2)n1 | 1000 to 10000 nM
33 | CC(C)OC(=O)/C=C\n1cnc(-c2cc(Cl)cc(Oc3ccc(Cl)cc3)c2)n1 | 1000 to 10000 nM
34 | N#C/C=C\n1cnc(-c2cccc(Cl)c2)n1 | ≤ 1000 nM
35 | O=C(/C=C\n1cnc(-c2cccc(Cl)c2)n1)OC1CCOCC1 | ≤ 1000 nM
36 | O=C(/C=C/n1cnc(-c2cccc(Cl)c2)n1)Nc1cccc(Cl)c1 | ≥ 10000 nM
37 | COc1cc(OC)cc(-c2ncn(/C=C\C(=O)OC(C)C)n2)c1 | ≤ 1000 nM
38 | O=C(/C=C\n1cnc(-c2cccc(Cl)c2)n1)OC1COC1 | ≤ 1000 nM
39 | CC(C)OC(=O)/C=C\n1cnc(-c2cc(OC(C)C)nc(C(F)(F)F)c2)n1 | ≤ 1000 nM
40 | CCOC(=O)/C=C\n1cnc(-c2cc(Cl)cc(Cl)c2)n1 | ≤ 1000 nM
41 | CC(C)OC(=O)/C=C\n1cnc(-c2cccc(C(F)(F)F)c2)n1 | ≤ 1000 nM
42 | O=C(/C=C/n1cnc(-c2cccc(Cl)c2)n1)OC1CNC1 | 1000 to 10000 nM
43 | CS(=O)(=O)/C=C\n1cnc(-c2cccc(Cl)c2)n1 | ≤ 1000 nM
44 | O=C(/C=C\n1cnc(-c2cccc(Cl)c2)n1)OC1CCOC1 (stereo unspecified) | ≤ 1000 nM
45 | Cc1cccc(-c2ncn(/C=C\C(=O)OC(C)C)n2)c1 | ≤ 1000 nM
46 | CC(C)OC(=O)/C=C\n1cnc(-c2ccc(-c3ccccc3)c(F)c2)n1 | ≥ 10000 nM
47 | O=C(/C=C\n1cnc(-c2cccc(Cl)c2)n1)NC1CCCC1 | ≥ 10000 nM
48 | COc1ccc(NC(=O)/C=C/n2cnc(-c3cccc(Cl)c3)n2)cc1 | ≥ 10000 nM
49 | CCOC(=O)/C=C/n1cnc(-c2cccc(Cl)c2)n1 | ≥ 10000 nM
50 | CC(C)OC(=O)/C=C\Cn1cnc(-c2cccc(Cl)c2)n1 | 1000 to 10000 nM
51 | CC(C)OC(=O)/C=C\n1cnc(-c2csc(Br)n2)n1 | 1000 to 10000 nM
52 | CC(C)Nc1cc(-c2ncn(/C=C\C(=O)OC(C)C)n2)cc(Cl)n1 | ≤ 1000 nM
53 | CCOC(=O)/C=C\n1cnc(-c2cc(Cl)cc(OC)c2)n1 | ≤ 1000 nM
54 | CC(C)OC(=O)/C=C\c1nnc(-c2cccc(F)c2)[nH]1 | 1000 to 10000 nM
55 | CC(C)OC(=O)/C=C/n1cnc(-c2cccc(Cl)c2)n1 | ≥ 10000 nM

Row | SMILES | IC50
56 | CC(C)(C)OC(=O)Nc1ccc(NC(=O)/C=C/n2cnc(-c3cccc(Cl)c3)n2)cc1 | ≥ 10000 nM
57 | CC(C)(C)OC(=O)/C=C\n1cnc(-c2cccc(Cl)c2)n1 | 1000 to 10000 nM
58 | CC(C)OC(=O)/C=C/n1cnc(-c2cc(OCCN3CCCC3)cc(C(F)(F)F)c2)n1 | ≥ 10000 nM
59 | CC(C)OC(=O)/C=C\n1cnc(-c2cc(NC3CCC3)nc(C(F)(F)F)c2)n1 | ≤ 1000 nM
60 | CC(C)OC(=O)/C=C/n1cnc(-c2cc(OCCN(C)C)cc(C(F)(F)F)c2)n1 | 1000 to 10000 nM
61 | CC(C)OC(=O)/C=C\n1cnc(-c2cc(Cl)nc(OC(C)C)c2)n1 | ≤ 1000 nM
62 | CC(C)OC(=O)/C=C\n1cnc(-c2cc(Cl)cc(OC(F)(F)F)c2)n1 | ≤ 1000 nM
63 | O=C(/C=C\n1cnc(-c2cccc(Cl)c2)n1)OC1CCCC1 | ≤ 1000 nM
64 | CC(C)Nc1cc(-c2ncn(/C=C\C(=O)OC(C)C)n2)cc(C(F)(F)F)n1 | ≤ 1000 nM
65 | CC(C)OC(=O)/C=C\n1cnc(-c2cc(O/C=C/C(=O)OC(C)C)cc(C(F)(F)F)c2)n1 | 1000 to 10000 nM
66 | O=C(/C=C\n1cnc(-c2cccc(Cl)c2)n1)OC1CCC1 | ≤ 1000 nM
67 | CC(C)OC(=O)/C=C\n1cnc(-c2cc(OCCN(C)C)cc(C(F)(F)F)c2)n1 | ≤ 1000 nM
68 | Nc1ccc(NC(=O)/C=C/n2cnc(-c3cccc(Cl)c3)n2)cc1 | ≥ 10000 nM
69 | CC(C)OC(=O)/C=C\n1cnc(-c2cc(Cl)ccc2N)n1 | ≤ 1000 nM
70 | CNc1cc(Cl)cc(-c2ncn(/C=C\C(=O)OC(C)C)n2)c1 | ≤ 1000 nM
71 | C[S+]([O-])/C=C\n1cnc(-c2cccc(Cl)c2)n1 (stereo unspecified) | 1000 to 10000 nM
72 | COc1cc(-c2ncn(/C=C\C(=O)OC3CNC3)n2)cc(C(F)(F)F)c1 | ≤ 1000 nM
73 | CC(C)Oc1cc(-c2ncn(/C=C\C(=O)OCc3ccccn3)n2)cc(C(F)(F)F)n1 | ≤ 1000 nM
74 | CC(C)OC(=O)/C=C\n1cnc(-c2cc(Cl)nc(Cl)c2)n1 | ≤ 1000 nM
75 | CC(C)(C)OC(=O)/C=C/n1cnc(-c2cccc(Cl)c2)n1 | ≥ 10000 nM
76 | N#C/C=C/n1cnc(-c2cccc(Cl)c2)n1 | 1000 to 10000 nM
77 | O=C(/C=C\n1cnc(-c2cccc(Cl)c2)n1)N1CCC1 | ≤ 1000 nM
78 | O=C(/C=C\n1cnc(-c2cccc(Cl)c2)n1)OC1CNC1 | ≤ 1000 nM
79 | CC(C)OC(=O)/C=C\n1cnc(-c2cc(C#N)cc(OC(C)C)c2)n1 | ≤ 1000 nM
80 | O=C(/C=C\c1nnc(-c2cccc(Cl)c2)[nH]1)Nc1ccccc1 | ≥ 10000 nM

System: not listed separately
Assay: Antitumor activity against 350 mm'3 human HCT116 cells xenografted in mouse assessed as tumor growth inhibition at 30 mg/kg, iv qd administered for 2 days measured after day 24 relative to control
Format: functional
Details: HCT-116, iv, read-out: TGI

Row | SMILES | inhibition in vivo at 30 mg/kg
81 | CCc1c2c(nc3ccc(OC(=O)N4CCC(N5CCCCC5)CC4)cc13)-c1cc3c(c(=O)n1C2)COC(=O)[C@]3(O)CC [IRINOTECAN] | 78%
